In the assay the target is T1, NK1 receptor (Cavia porcellus, UniProt P30547).
T1 construct: Guinea pigs (300-500 g) were anaesthetised with pentobarbital (50 mg/kg i.p.); from tissue; host or cells: whole anaesthetised guinea pig (in vivo)
The experiment in a line: Inhibition of NK1-induced fall in blood pressure in anaesthetised guinea pigs (duration of activity). The class given is in vivo, guinea pig. The settings on record: test substance intraduodenal, NK1-agonist 0.2 μmol/kg i.v. every 30 min for 6 to 8 hours. As to the method:
Determining the Duration of Activity
Inhibition of NK1-induced Fall in Blood Pressure in Anaesthetised Guinea Pigs
Guinea pigs (300-500 g) were anaesthetised with pentobarbital (50 mg/kg i.p.) and prepared for duodenal administration of the test substances and for measurement of the arterial blood pressure. A temporary drop in blood pressure was induced by the intravenous administration of an NK1-agonist (0.2 μmol/kg at 30 minute intervals). After the basal value of the blood pressure had been determined the test substances were administered by intraduodenal route. Then the NK1-agonist was administered intravenously every 30 min for 6 to 8 hours. The results were expressed as a percentage inhibition in the NK1-induced fall in blood pressure and the ED50 values were calculated by regression analysis.

Each structure is given as a SMILES string.

T1 sequence (P30547 whole entry): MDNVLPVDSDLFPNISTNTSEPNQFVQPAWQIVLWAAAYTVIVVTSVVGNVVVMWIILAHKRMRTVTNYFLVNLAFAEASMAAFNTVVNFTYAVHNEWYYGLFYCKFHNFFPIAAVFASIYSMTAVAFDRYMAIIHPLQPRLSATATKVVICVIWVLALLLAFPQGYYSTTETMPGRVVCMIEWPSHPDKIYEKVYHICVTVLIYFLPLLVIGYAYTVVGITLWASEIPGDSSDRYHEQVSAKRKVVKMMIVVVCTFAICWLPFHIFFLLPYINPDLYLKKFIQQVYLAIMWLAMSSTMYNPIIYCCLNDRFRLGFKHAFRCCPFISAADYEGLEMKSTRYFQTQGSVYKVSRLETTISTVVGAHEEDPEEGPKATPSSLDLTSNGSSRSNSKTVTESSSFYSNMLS

On to `CN(CCc1cc(C(F)(F)F)cc(C(F)(F)F)c1)C(=O)C(c1ccccc1)N1CCC(N(C)CCCO)CC1` (stereo not shown) [Example 1, N-[2-(3,5-Bis-trifluoromethyl-phenyl)-ethyl]-2-{4-[(3-hydroxy-propyl)-methyl-amino]-piperidine-1-yl}-N-methyl-2-phenyl-acetamide], for which the Duration of activity was >360 min.

With `CN(CCc1cc(C(F)(F)F)cc(C(F)(F)F)c1)C(=O)C(c1ccccc1)N1CCC(N(C)CC2CC2)CC1` (stereo not shown) [Example 3, N-[2-(3,5-bis-trifluoromethyl-phenyl)-ethyl]-2-[4-(cyclopropylmethyl-methyl-amino)-piperidin-1-yl]-N-methyl-2-phenyl-acetamide], the Duration of activity is >360 min.

With `CN(CCc1cc(C(F)(F)F)cc(C(F)(F)F)c1)C(=O)[C@H](c1ccccc1)N1CCC(N(C)CCO)CC1` [Example B-1, reference compound], the Duration of activity is reported as 120 min.

In the case of `CN(CCc1cc(C(F)(F)F)cc(C(F)(F)F)c1)C(=O)C(c1ccccc1)N1CCC(N(CCO)CCCO)CC1` (stereo not shown) [Example 4, N-[2-(3,5-bis-trifluoromethyl-phenyl)-ethyl]-2-{4-[(2-hydroxy-ethyl)-(3-hydroxy-propyl)-amino]-piperidin-1-yl}-N-methyl-2-phenyl-acetamide], the Duration of activity is >360 min.

Take `CN(CCc1cc(C(F)(F)F)cc(C(F)(F)F)c1)C(=O)[C@H](c1ccccc1)N1CCC(N(CCO)CCO)CC1` [Example B-4, reference compound]: the Duration of activity was 120 min.

For the molecule `CN(CCc1cc(C(F)(F)F)cc(C(F)(F)F)c1)C(=O)[C@H](c1ccccc1)N1CCC(N(CCCO)CC2CC2)CC1` [Example 5, (S)—N-[2-(3.5-bis-trifluoromethyl-phenyl)-ethyl]-2-{4-[cyclopropylmethyl-(3-hydroxy-propyl)-amino]-piperidin-1-yl}-N-methyl-2-phenyl-acetamide], the Duration of activity is recorded as >360 min.

Take `CN(CCc1cc(C(F)(F)F)cc(C(F)(F)F)c1)C(=O)C(c1ccccc1)N1CCC(NC(CO)CO)CC1` (stereo not shown) [Example 2, N-[2-(3,5-bis-trifluoromethyl-phenyl)-ethyl]-2-[4-(2-hydroxy-1-hydroxymethyl-ethylamino)-piperidin-1-yl]-N-methyl-2-phenylacetamide]: the Duration of activity is on record as >360 min.

The values above are taken from US6747044B2, “Neurokinin antagonists” (Boehringer Ingelheim Pharma KG, priority 2000, dated 2004).
